These results are taken from patent EP4640686A1, “DEGRADER FOR DEGRADING BRD PROTEIN AND PHARMACEUTICAL COMPOSITION CONTAINING SAME” (Innocure Therapeutics, Inc., priority 2022, dated 2024).

Read-outs that look alike come from different tables or passages of the source. Some results are limits rather than exact numbers.

Assay type in all cases: cell-based
In assay [1] the target is T1, BRD4 (Homo sapiens, UniProt O60885). The experiment in a line: BRD4 protein degradation by western blotting in RPMI2650 cells (24 h treatment). Also on record: To evaluate the resolution of PROTAC for BRD4 expressed in cells; endogenous in cells; host or cells: RPMI2650. As to the method: (§1) The synthesized compounds were prepared with a 10 mM or 50 mM raw material solution dissolved in DMSO [dimethyl sulfoxide], and were diluted sequentially and treated. [RPMI2650] and [SNU2972] were cultivated under specific conditions.
(§2) To evaluate the resolution of PROTAC for BRD4 expressed in cells, cells were dispensed in a concentration of 5 X 10^5 cells/well in a 6-well plate, and the sample was treated for 24 hours. […] Protein expression was normalized based on the expression value of β or GAPDH, and protein expression in each sample was measured as % based on 100% of samples treated with 0.1% DMSO vehicle. Protein expression was quantified using Image J program. Change in protein expression volume by compound treatment (DC50: concentration of compounds where 50% protein expression inhibition is achieved) was calculated using the GraphicPad Prism 8.0 software.
In general terms: In western blotting, separated proteins are transferred to a membrane and probed.

The subject of a further assay is RPMI2650. The experiment in a line: Cancer cell antiproliferative activity / cell viability in RPMI2650 cells (72 h treatment). Here is the method:
(§3) The human breast cancer cell line [MDA-MB-231] was cultured in RPMI medium with the addition of 10% fetal bovine serum, penicillin [100U/ml], and streptomycin [[…]]. The synthesized compounds were prepared with a 10 mM or 50 mM raw material solution dissolved in DMSO [dimethyl sulfoxide], and were diluted sequentially and treated. [RPMI2650] and [SNU2972] were cultivated under specific conditions.
(§4) To observe cell growth inhibition, cells were dispensed in a concentration of 5,000 cells/well in a 96-well plate, and samples prepared at various concentrations were treated for 72 hours. The IC50 value (the concentration of the compound achieving 50% cytostaticism) is the average value of the results of three independent measurements.

A further assay deals with T2, BRD4-NUT (Homo sapiens, UniProt O60885+Q86Y26).
T2 construct: endogenous in cells; host or cells: RPMI2650
Put plainly: BRD4-NUT protein degradation by western blotting in RPMI2650 cells (24 h treatment). Here is the method: as §1, §2

For assay [2], the target named is T1, BRD4. The experiment in a line: BRD4 protein degradation by western blotting in MDA-MB-231 cells (24 h treatment). More on the design: To evaluate the resolution of PROTAC for BRD4 expressed in cells; endogenous in cells; host or cells: MDA-MB-231.
The subject of another assay is MDA-MB-231. Put plainly: Cancer cell antiproliferative activity / cell viability in MDA-MB-231 cells (72 h treatment). Particulars: Homo sapiens, read-out: BRD4 (IC50). As to the method:
as §3, §4

The mark [3] stands for this setting: read-out: BR04 (DC50), RPMI2650.
Where [4] appears, read: Homo sapiens, RPMI-2650, RPMI2650, read-out: BRD4 (IC50).
Setting [5] is: read-out: BRD4-NUT (DC50), RPMI2650.
The mark [6] stands for this setting: RPM12650, read-out: BRD4 (DC50).
Where [7] appears, read: Homo sapiens, RPMI-2650, 72 h, RPM12650, read-out: Cell Viatility (IC50).
The mark [8] stands for this setting: RPM12650, read-out: BRD4-NUT (DC50).
The mark [9] stands for this setting: Homo sapiens, RPMI-2650, RPM12650, read-out: Cell Viatility (IC50).

The DC50 is the concentration giving 50% degradation. As usually defined, the IC50 is the concentration at which inhibition is half-maximal. `Cc1sc2c(c1C)C(c1ccc(Cl)cc1)=N[C@@H](CC(=O)Nc1ccc(N3CCN(c4ccc5c(=O)n(C6CCC(=O)NC6=O)nc(C)c5c4)CC3)cc1)c1nnc(C)n1-2` (stereo partly drawn) [ICT-0001410, 2-((S)-4-(4-chlorophenyl)-2,3,9-trimethyl-6H-thieno[3,2-f][1,2,4]triazolo[4,3-a][1,4]diazepine-6-yl)-N-(4-(4-(2-(2,6-dioxopiperidin-3-yl)-4-methyl-1-oxo-1,2-dihydroptalazine-6-yl)piperazine-1-yl)phenyl)acetamide]: the half-maximal degradation concentration (DC50) at BRD4 [1] (setting [3]), on BRD4-NUT (setting [5]) and at BRD4 [2] was below 100 nM in each case. Moreover, the IC50 with RPMI2650 (setting [4]) and with MDA-MB-231 was below 100 nM each time.
For the compound `Cc1sc2c(c1C)C(c1ccc(Cl)cc1)=N[C@@H](CC(=O)Nc1ccc(CN3CCN(c4ccc5c(=O)n(C6CCC(=O)NC6=O)nc(C)c5c4)CC3)cc1)c1nnc(C)n1-2` (stereo partly drawn) [ICT-0001423, 2-[(9S)-7-(4-chlorophenyl)-4,5,13-trimethyl-3-thia-1,8,11,12-tetraazatricyclo[8.3.0.0^2,^6]trideca-2(6),4,7,10,12-pentaene-9-yl]-N-[4-({4-[2-(2,6-dioxopiperidin-3-yl)-4-methyl-1-oxo-1,2-dihydroptalazine-6-yl]piperazine-1-yl}methyl)phenyl]acetamide], the DC50 on BRD4 [1] (setting [3]), at BRD4-NUT (setting [5]) and at BRD4 [2] was below 100 nM each time. In addition, the IC50 in the assay on RPMI2650 (setting [4]) and in the assay with MDA-MB-231 was below 100 nM throughout.
As for `CC[C@@H]1c2nnc(C)n2-c2cnc(Nc3ccc(C(=O)NC4CCN(C(=O)CCCCN5CCN(c6ccc(NC7CCC(=O)NC7=O)cc6F)CC5)CC4)cc3OC)nc2N1CC1CCCCC1` (stereo partly drawn) [ICT-0001571, 4-{[(4R)-5-(cyclohexylmethyl)-4-ethyl-1-methyl-4H,5H-[1,2,4]triazolo[4,3-f]pteridine-7-yl]amino}-N-{1-[5-(4-{4-[(2,6-dioxopiperidin-3-yl)amino]-2-fluorophenyl}piperazine-1-yl)pentanoyl]piperidine-4-yl}-3-methoxybenzamide], the DC50 at BRD4 [1] (setting [6]) and on BRD4-NUT (setting [8]) was above 1000 nM throughout. Further, the IC50 in the assay on RPMI2650 (setting [7]) is above 1000 nM.
Regarding `Cc1sc2c(c1C)C(c1ccc(Cl)cc1)=N[C@@H](CC(=O)Nc1ccc(CN3CCN(c4ccc(NC5CCC(=O)NC5=O)cc4F)CC3)cc1)c1nnc(C)n1-2` (stereo partly drawn) [ICT-0001441, 2-[(9S)-7-(4-chlorophenyl)-4,5,13-trimethyl-3-thia-1,8,11,12-tetraazatricyclo[8.3.0.0^2,^6]trideca-2(6),4,7,10,12-pentaene-9-yl]-N-{4-[(4-{4-[(2,6-dioxopiperidine-3-yl)amino]-2-fluorophenyl}piperazine-1-yl)methyl]phenyl}acetamide], the DC50 on BRD4 [1] (setting [3]) is below 100 nM; at BRD4-NUT (RPMI2650, read-out: BRD4-NUT (DC50)), below 100 nM. Moreover, the IC50 in the assay with RPMI2650 (setting [4]) is below 100 nM.
Turning to `CC[C@@H]1c2nnc(C)n2-c2cnc(Nc3ccc(C(=O)N4CCN(CCNc5cccc6c(C)nn(C7CCC(=O)NC7=O)c(=O)c56)CC4)cc3OC)nc2N1CC1CCCCC1` (stereo partly drawn) [ICT-0001583, 3-(8-((2-(4-(4-(((R)-5-(cyclohexylmethyl)-4-ethyl-1-methyl-4,5-dihydro-[1,2,4]triazolo[4,3-f]pteridine-7-yl)amino)3-methoxybenzoyl)piperazine-1-yl)ethyl)amino)4-methyl-1-oxopthalazine-2(1H)-yl)piperidine-2,6-dione], the DC50 on BRD4 [1] (setting [6]) and on BRD4-NUT (setting [8]) was below 100 nM throughout. The concentration for half-maximal inhibition (IC50) in the assay with RPMI2650 (setting [9]) was above 1000 nM.
In the case of `CC[C@@H]1c2nnc(C)n2-c2cnc(Nc3ccc(C(=O)NCCOCCOCCOCCNc4cccc5cnn(C6CCC(=O)NC6=O)c(=O)c45)cc3OC)nc2N1CC1CCCCC1` (stereo partly shown) [ICT-0001549], the DC50 was below 100 nM on BRD4 [1] (setting [6]) and above 1000 nM at BRD4-NUT (setting [8]). Besides, in the assay on RPMI2650 (setting [9]), the IC50 was 100 to 1000 nM.
`CC[C@@H]1c2nnc(C)n2-c2cnc(Nc3ccc(C(=O)NC4CCN(CCOCCOc5ccc(NC6CCC(=O)NC6=O)cc5F)CC4)cc3OC)nc2N1CC1CCCCC1` (stereo partly drawn) [ICT-0001570, 4-{[(4R)-5-(cyclohexylmethyl)-4-ethyl-1-methyl-4H,5H-[1,2,4]triazolo[4,3-f]pteridine-7-yl]amino}-N-{1-[2-(2-{4-[(2,6-dioxopiperidin-3-yl)amino]-2-fluorophenoxy}ethoxy)ethyl]piperidine-4-yl}-3-methoxybenzamide]: the DC50 at BRD4 [1] (setting [6]) and at BRD4-NUT (setting [8]) was above 1000 nM each time. Further, in the assay with RPMI2650 (setting [7]), the IC50 is above 1000 nM.
In the case of `CC[C@@H]1c2nnc(C)n2-c2cnc(Nc3ccc(C(=O)NC4CCN(C(=O)CN5CCN(c6ccc7c(=O)n(C8CCC(=O)NC8=O)nc(C)c7c6)CC5)CC4)cc3OC)nc2N1CC1CCCCC1` (stereo partly shown) [ICT-0001563], the DC50 at BRD4 [1] (setting [6]) and on BRD4-NUT (setting [8]) was below 100 nM in each case. Also, the IC50 in the assay with RPMI2650 (setting [9]) is above 1000 nM.
Take `CC[C@@H]1c2nnc(C)n2-c2cnc(Nc3ccc(C(=O)N4CCO[C@@H](CN5CCN(c6ccc7c(=O)n(C8CCC(=O)NC8=O)nc(C)c7c6)CC5)C4)cc3OC)nc2N1CC1CCCCC1` (stereo partly drawn) [ICT-0001548, 3-(6-(4-(((S)-4-(4-(((R)-5-(cyclohexylmethyl)-4-ethyl-1-methyl-4,5-dihydro-[1,2,4]triazolo[4,3-f]pteridine-7-yl)amino)3-methoxybenzoyl)morpholine-2-il)methyl)piperazine-1-yl)4-methyl-1-oxopthalazine-2(1H)-yl)piperidine-2,6-dione]: the DC50 at BRD4 [1] (setting [6]) and at BRD4-NUT (setting [8]) was below 100 nM in each case. For the same compound, the IC50 in the assay on RPMI2650 (RPM12650, read-out: Cell Viatility (IC50)) was above 1000 nM.
`CCC1c2nnc(C)n2-c2cnc(Nc3ccc(C(=O)NC4CCN(CCN5CCN(c6ccc7c(=O)n(C8CCC(=O)NC8=O)nc(C)c7c6)CC5)CC4)cc3OC)nc2N1CC1CCCCC1` [ICT-0001560, 4-{[(4S)-5-(cyclohexylmethyl)-4-ethyl-1-methyl-4H,5H-[1,2,4]triazolo[4,3-f]pteridine-7-yl]amino}-N-[1-(2-{4-[2-(2,6-dioxopiperidine-3-yl)-4-methyl-1-oxo-1,2-dihydroptalazine-6-yl]piperazine-1-yl}ethyl)piperidine-4-yl]-3-methoxybenzamide]: the DC50 on BRD4 [1] (setting [6]) and on BRD4-NUT (setting [8]) was below 100 nM in each case. In addition, the IC50 in the assay with RPMI2650 (setting [9]) is above 1000 nM.
As to `CC[C@@H]1c2nnc(C)n2-c2cnc(Nc3ccc(C(=O)NC4CCN(C(=O)CCN5CCN(c6ccc(NC7CCC(=O)NC7=O)cc6F)CC5)CC4)cc3OC)nc2N1CC1CCCCC1` (stereo partly drawn) [ICT-0001578, 4-{[(4R)-5-(cyclohexylmethyl)-4-ethyl-1-methyl-4H,5H-[1,2,4]triazolo[4,3-f]pteridine-7-yl]amino}-N-{1-[3-(4-{4-[(2,6-dioxopiperidin-3-yl)amino]-2-fluorophenyl}piperazine-1-yl)propanoyl]piperidine-4-yl}-3-methoxybenzamide], the DC50 on BRD4 [1] (setting [6]) and on BRD4-NUT (setting [8]) was above 1000 nM throughout. Moreover, the half-maximal inhibitory concentration (IC50) with RPMI2650 (setting [7]) was in the range of 100 to 1000 nM.
On to `CC[C@@H]1c2nnc(C)n2-c2cnc(Nc3ccc(C(=O)N4CCN(CCNc5cccc6cnn(C7CCC(=O)NC7=O)c(=O)c56)CC4)cc3OC)nc2N1CC1CCCCC1` (stereo partly drawn) [ICT-0001601, 3-(8-((2-(4-(4-(((R)-5-(cyclohexylmethyl)-4-ethyl-1-methyl-4,5-dihydro-[1,2,4]triazolo[4,3-f]pteridine-7-yl)amino)3-methoxybenzoyl)piperazine-1-il)ethyl)amino)1-oxopthalazine-2(1H)-yl)piperidine-2,6-dione], for which the DC50 at BRD4 [1] (setting [6]) and on BRD4-NUT (setting [8]) was below 100 nM each time. In addition, in the assay with RPMI2650 (setting [9]), the IC50 was below 100 nM.
As to `CC[C@@H]1c2nnc(C)n2-c2cnc(Nc3ccc(C(=O)N4CCN(CCNc5ccc6c(C)nn(C7CCC(=O)NC7=O)c(=O)c6c5)CC4)cc3OC)nc2N1CC1CCCCC1` (stereo partly drawn) [ICT-0001600, 3-(7-((2-(4-(4-(((R)-5-(cyclohexylmethyl)-4-ethyl-1-methyl-4,5-dihydro-[1,2,4]triazolo[4,3-f]pteridine-7-yl)amino)3-methoxybenzoyl)piperazine-1-yl)ethyl)amino)4-methyl-1-oxopthalazine-2(1H)-yl)piperidine-2,6-dione], the DC50 on BRD4 [1] (setting [6]) and at BRD4-NUT (setting [8]) was below 100 nM throughout. In addition, in the assay on RPMI2650 (setting [9]), the IC50 is below 100 nM.
